Results filed as inconclusive are left out. Activity calls are given as the source filed them.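 The calls were made as follows: active = compounds lowering the luciferase signal with a fitted half-maximal dose at most twice their top valid dose (cut at about 30 µM in these data); inconclusive = flat fits with moderate signal loss, or poor fits; inactive = the rest.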
Each compound was assayed on Clone20 osteoblast Shn3 3'UTR firefly luciferase, 24 h (assay: Schnurri-3 3'UTR-luciferase signal suppressors – cell-based, Clone20 osteoblasts, luminescence, dry powder, set 2, dose response (AID 743417)).

| SMILES | AC50 |
| --- | --- |
| CS(=O)(=O)c1ccc(C(=O)OCC(=O)N2CCOCC2)cc1[N+](=O)[O-] | 17.5 µM |
| O=C(CCN1CCc2ccccc2C(O)(c2ccccc2)C1)c1ccc2c(c1)OCCO2 (configuration not stated) | 23.1 µM |
| COc1ccc(CN(C)c2ccc(S(=O)(=O)N3CCN(C)CC3)cc2[N+](=O)[O-])cc1OC | 0.691 µM |
| Cc1ccc(-n2cc(CNCCCn3ccnc3C)c(-c3ccc(F)cc3)n2)cc1 | 20.6 µM |
| O=C1N(c2ccccc2)C[C@@H]2C[C@@H](c3cc4ccccc4o3)N3CCC[C@@]123 | 0.536 µM |
| OC[C@@H]1CN(Cc2ccc(-c3ccccc3)cc2)C[C@H](n2cnc3c(NCc4ccc(F)cc4)ncnc32)O1 | 1.58 µM |
| C=CCNc1nc(N2CCCCC2)c(C#N)c2c1CN(Cc1ccccc1)CC2 | 16.8 µM |
| O=C(c1ccc(S(=O)(=O)c2ccc(F)cc2)c([N+](=O)[O-])c1)N1CCCCCC1 | 2.38 µM |
| CC12CC(O)C3c4ccc(O)cc4CCC3C1CCC2=O (configuration not stated) | > 70 µM (inactive) |
| Cc1cccc2sc(NNC(=O)c3ccc(S(=O)(=O)N4CC(C)CC(C)C4)cc3)nc12 (configuration not stated) | 2.57 µM |
| c1csc(CCNc2ncnc3sc4c(c23)CCC4)c1 | 1.7 µM |
| CC(=O)N1CCOc2cc(S(=O)(=O)NCc3ccc(F)cc3)c(C)cc21 | > 70 µM (inactive) |
| Clc1ccc(-c2cc(-c3nnc4n3CCCCC4)c3ccccc3n2)cc1 | 5.59 µM |
| COc1cc(NC(=O)c2cc3c(Cl)nc4ccccc4c3s2)cc(OC)c1OC | 24.4 µM |
| CC(OC(=O)c1ccc(S(C)(=O)=O)c([N+](=O)[O-])c1)C(=O)NC1C2CC3CC(C2)CC1C3 (configuration not stated) | 1.4 µM |
| O=C(Cn1cc(C(=O)c2ccco2)c2ccccc21)Nc1ccccc1F | 2.6 µM |
| O=c1c2ccccc2nc2n1C(CSCc1ccc(Cl)cc1Cl)CS2 (configuration not stated) | 1.45 µM |
| Cc1ccc2nnn(Cc3cccc(C(C)(C)C)c3O)c2c1 | 5.44 µM |
| Cc1cc(C(=O)COC(=O)c2ccccc2O)c(C)n1Cc1cccs1 | 8.99 µM |
| CC(=O)c1c(C)[nH]c(C(=O)OCC(=O)Nc2ccc(Cl)cc2[N+](=O)[O-])c1C | 0.325 µM |
| Cc1ccc2[nH]c3c(N4CCN(Cc5ccccc5)CC4)ncnc3c2c1 | 4.18 µM |
| CC(C)c1ccc(NC(=O)Nc2nc(C(N)C3CCCCC3)cs2)cc1 (configuration not stated) | 7.29 µM |
| Cc1cc(C)nc(SCC(=O)Nc2ccc(N3CCOCC3)c(Cl)c2)n1 | 1.66 µM |
| CCOc1cc(/C=C2/C(=O)ON=C2C)ccc1OCc1ccccc1F | 6.95 µM |
| Cc1oc(-c2ccc(Cl)cc2)nc1CS(=O)CC(=O)NCCCN1CCN(Cc2ccccc2)CC1 (configuration not stated) | 2.52 µM |
| CCOc1ccc(CN(C)c2ccc(S(=O)(=O)N3CCN(C)CC3)cc2[N+](=O)[O-])cc1OC | 3.38 µM |

| SMILES | AC50 |
| --- | --- |
| Cc1ccc(-c2nc(NC(=O)c3nn(C)cc3[N+](=O)[O-])sc2C)cc1C | 2.25 µM |
| COc1ccc(CNCCc2ccc(Cl)cc2)cc1OCc1ccccc1 | 5.59 µM |
| O=C(Nc1ccc(Cl)c(Cl)c1)c1cccc(S(=O)(=O)NCc2cccnc2)c1 | 5.39 µM |
| Cc1ccc(C)c(S(=O)(=O)Nc2ccc(-n3cnnn3)cc2)c1 | > 70 µM (inactive) |
| CC(C)NS(=O)(=O)c1ccc(CCC(=O)Nc2cc(Cl)ccc2Oc2ccccc2)cc1 | 7.65 µM |
| Cc1c(C(=O)Nc2cccc(C(F)(F)F)c2)oc2ccc(S(=O)(=O)N3CCOCC3)cc12 | 3.8 µM |
| c1ccc(CCNc2ccnc3cc4ccccc4cc23)cc1 | 1.62 µM |
| COc1cccc(OCCn2cc(C(C)=O)c3ccccc32)c1 | 1.85 µM |
| O=C1C(F)=CC(COC(c2ccccc2)(c2ccccc2)c2ccccc2)OC1n1cc(F)c(=O)[nH]c1=O (configuration not stated) | 0.428 µM |
| CN(C)S(=O)(=O)c1cccc(N=c2scc(-c3ccc4c(c3)NC(=O)CO4)n2CC2CCCO2)c1 (configuration not stated) | 14 µM |
| COc1ccc(OC)c(NC(=O)CN(Cc2ccc(F)cc2)C2CCCCC2)c1 | 4.99 µM |
| COCc1c(C(=O)Nc2cccc(S(=O)(=O)N3CCCCC3)c2)oc2ccccc12 | 9.63 µM |
| CCOC(=O)N1CCN(C(=O)c2ccc(Cn3c(=S)[nH]c4ccc(Br)cc4c3=O)cc2)CC1 | 1.25 µM |
| CC1Sc2ccc(S(=O)(=O)N3CCC(C(=O)Nc4ccc(Cl)cc4)CC3)cc2NC1=O (configuration not stated) | 2.42 µM |
| CCOC(=O)c1ccc(NC(=O)c2nc(S(=O)(=O)Cc3ccccc3)ncc2Cl)cc1 | 0.572 µM |
| Cc1cc(C)n(-c2nc(Nc3ccccc3C(F)(F)F)nc(-n3nc(C)cc3C)n2)n1 | 5.49 µM |
| O=C(Cn1cnc2ccccc21)Nc1cccc(S(=O)(=O)N2CCCC2)c1 | 2.77 µM |
| CN(Cc1nccs1)C(=O)c1cc(COc2cccc3cnccc23)on1 | 2.77 µM |
| CCc1ccc(Nc2n[n+](-c3ccccc3)c(-c3c(Cl)cccc3Cl)s2)cc1 | 5.4 µM |
| CCCCCCCN1C(Nc2ccccc2)=NC[C@@H]1Cc1ccccc1 | 4.82 µM |
| CCCCN1C2=NCCCN2c2cc(C)c(C)cc21 | 0.803 µM |
| Cc1ccnc(SCC(=O)Nc2sc3c(c2C#N)CCCC3)n1 | 0.955 µM |
| CC(=O)c1ccc(N2CCN(c3ccc(S(=O)(=O)NCCCN(C)C)cc3[N+](=O)[O-])CC2)cc1 | 3.78 µM |
| O=C(Oc1c(CN2CCOCC2)cc(Cl)c2cccnc12)c1ccccc1Cl | 4.59 µM |
| CCOc1cc(/C=C2\CN(CC)C/C(=C\c3ccc(O)c(OCC)c3)C2=O)ccc1O | 2.12 µM |
| Nc1cc2c(cc1Br)[nH]c(=O)c1ccccc12 | 5.46 µM |

Reference: PubChem BioAssay AID743417 (Broad Institute, 2014)
